Results as given in patent US20260217677A1, “ORGANIC COMPOUNDS AS NLRP3 INHIBITORS” (KODIAK SCIENCES, INC., priority 2023, published 2026).

Each compound was assayed on IL-1β release in U937 cells after NLRP3 activation (assay: IL-1β release inhibition in U937 cells (MSD V-Plex)). Conditions: Homo sapiens, U-937, read-out: IL-1β IC50, Table 3; PMA-differentiated U937 cells, 1 μg/mL LPS 3 h, compound 30 min, 10 mM nigericin 1 h.

| SMILES | IC50 |
| --- | --- |
| Oc1cc(C(F)(F)F)ccc1-c1nnc(N[C@@H]2CCCN(C[C@H]3C[C@H](O)C3)C2)c2c1COC2 [Example 59, 2-(4-(((R)-1-(((1r,3R)-3-Hydroxycyclobutyl)methyl)piperidin-3-yl)amino)-5,7-dihydrofuro[3,4-d]pyridazin-1-yl)-5-(trifluoromethyl)phenol] | < 5 nM |
| O=C(CN1CCC[C@@H](Nc2nnc(-c3ccc4sccc4c3O)c3c2COC3)C1)N1CCC(O)CC1 [Example 56, (R)-2-(3-((4-(4-Hydroxybenzo[b]thiophen-5-yl)-5,7-dihydrofuro[3,4-d]pyridazin-1-yl)amino)piperidin-1-yl)-1-(4-hydroxypiperidin-1-yl)ethan-1-one] | 5 to 50 nM |
| Cc1c(-c2ccc(C(F)(F)F)cc2O)nnc2c1CCCN2[C@@H]1CCCN(C2CCN(C3CC(O)C3)CC2)C1 (stereo partly drawn) [Example 44, 2-{8-[(3R)-1′-(3-Hydroxycyclobutyl)-[1,4′-bipiperidin]-3-yl]-4-methyl-5H,6H,7H-pyrido[2,3-c]pyridazin-3-yl}-5-(trifluoromethyl)phenol] | 50 to 500 nM |
| Cc1c(N[C@@H]2CCCN(CC3CC(O)C3)C2)nnc(-c2ccc3sccc3c2O)c1C (stereo partly drawn) [Example 74, 5-(6-(((R)-1-(((1r,3R)-3-Hydroxycyclobutyl)methyl)piperidin-3-yl)amino)-4,5-dimethylpyridazin-3-yl)benzo[b]thiophen-4-ol] | < 5 nM |
| Cc1cc(C(F)(F)F)cc(O)c1-c1ccc(N[C@@H]2CCCN(CCN3CCC(O)CC3)C2)nn1 [Compound 6, (R)-1-(2-(3-((6-(2-Hydroxy-6-methyl-4-(trifluoromethyl)phenyl)pyridazin-3-yl)amino)piperidin-1-yl)ethyl)piperidin-4-ol] | 50 to 500 nM |
| Cc1c(-c2ccc(C(F)(F)F)cc2O)nnc2c1CCCN2[C@@H]1CCCN(C2CCN([C@H]3C[C@@H](O)C3)CC2)C1 [Example 45, 2-{4-Methyl-8-[(3R)-1′-[(1s,3s)-3-hydroxycyclobutyl]-[1,4′-bipiperidin]-3-yl]-5H,6H,7H-pyrido[2,3-c]pyridazin-3-yl}-5-(trifluoromethyl)phenol] | 50 to 500 nM |
| Oc1cc(C(F)(F)F)ccc1-c1nnc(N[C@@H]2CCCN(CCN3CC[C@@H](O)C3)C2)c2c1COC2 [Example 36, (R)-1-(2-((R)-3-((4-(2-Hydroxy-4-(trifluoromethyl)phenyl)-5,7-dihydrofuro[3,4-d]pyridazin-1-yl)amino)piperidin-1-yl)ethyl)pyrrolidin-3-ol] | 5 to 50 nM |
| Cc1cc(N[C@@H]2CCCN(CCOC(=O)N3CCC(O)CC3)C2)nnc1-c1ccc2sccc2c1O [Example 69, (R)-2-(3-((6-(4-Hydroxybenzo[b]thiophen-5-yl)-5-methylpyridazin-3-yl)amino)piperidin-1-yl)ethyl 4-hydroxypiperidine-1-carboxylate] | < 5 nM |
| Cc1c(N[C@@H]2CCCN(C(=O)C34CC(O)(C3)C4)C2)nnc(-c2ccc(C(F)(F)F)cc2O)c1C [Example 67, (R)-(3-((6-(2-hydroxy-4-(trifluoromethyl)phenyl)-4,5-dimethylpyridazin-3-yl)amino)piperidin-1-yl) (3-hydroxybicyclo[1.1.1]pentan-1-yl)methanone] | 5 to 50 nM |
| Cc1c(N[C@@H]2CCCN(C[C@H]3C[C@@H](O)C3)C2)nnc(-c2ccc3sccc3c2O)c1C [Example 73, 5-(6-(((R)-1-(((1s,3S)-3-Hydroxycyclobutyl)methyl)piperidin-3-yl)amino)-4,5-dimethylpyridazin-3-yl)benzo[b]thiophen-4-ol] | < 5 nM |

The next lines start with the values.

| IC50 | SMILES |
| --- | --- |
| > 500 nM | Cc1cc(N[C@@H]2CCCN(CCN3CCC(O)C3)C2)nnc1-c1ccc(C(F)(F)F)cc1O (stereo partly drawn) [Compound 2, 1-(2-((R)-3-((6-(2-Hydroxy-4-(trifluoromethyl)phenyl)-5-methylpyridazin-3-yl)amino)piperidin-1-yl)ethyl)pyrrolidin-3-ol] |
| < 5 nM | Cc1cc(N[C@@H]2CCCN(CC(=O)N3CC4(CCC(O)CC4)C3)C2)nnc1-c1ccc(C(F)(F)F)cc1O [Compound 17, (R)-2-(3-((6-(2-Hydroxy-4-(trifluoromethyl)phenyl)-5-methylpyridazin-3-yl)amino)piperidin-1-yl)-1-(7-hydroxy-2-azaspiro[3.5]nonan-2-yl)ethan-1-one] |
| 5 to 50 nM | Cc1cc(N[C@@H]2CCCN(CC(=O)N[C@H]3C[C@@H](O)C3)C2)nnc1-c1ccc(C(F)(F)F)cc1O [Compound 14, 2-((R)-3-((6-(2-Hydroxy-4-(trifluoromethyl)phenyl)-5-methylpyridazin-3-yl)amino)piperidin-1-yl)-N-((1s,3S)-3-hydroxycyclobutyl)acetamide] |
| < 5 nM | Cc1cc(N[C@@H]2CCCN(CCC3CCC(O)CC3)C2)nnc1-c1ccc(C(F)(F)F)cc1O (single isomer, unassigned) [Example 72] |
| < 5 nM | Cc1cc(N[C@@H]2CCCN(CC34CC(O)(C3)C4)C2)nnc1-c1ccc(C(F)(F)F)cc1O [Example 64, (R)-3-((3-((6-(2-Hydroxy-4-(trifluoromethyl)phenyl)-5-methylpyridazin-3-yl)amino)piperidin-1-yl)methyl) bicyclo[1.1.1]pentan-1-ol] |
| 5 to 50 nM | Cc1cc(N[C@@H]2CCCN(CC(=O)N3CC(C)(CO)C3)C2)nnc1-c1ccc(C(F)(F)F)cc1O [Example 48, (R)-2-(3-((6-(2-Hydroxy-4-(trifluoromethyl)phenyl)-5-methylpyridazin-3-yl)amino)piperidin-1-yl)-1-(3-(hydroxymethyl)-3-methylazetidin-1-yl)ethan-1-one] |
| < 5 nM | Cc1cc(N[C@@H]2CCCN(CC(=O)N3CCC4(CC3)CC(O)C4)C2)nnc1-c1ccc(C(F)(F)F)cc1O [Compound 15, 2-[(3R)-3-({6-[2-Hydroxy-4-(trifluoromethyl)phenyl]-5-methylpyridazin-3-yl}amino)piperidin-1-yl]-1-{2-hydroxy-7-azaspiro[3.5]nonan-7-yl}ethanone] |
| > 500 nM | Cc1cc(N[C@@H]2CCCN(CCN3CC[C@@H](O)C3)C2)nnc1-c1ccc(C(F)(F)F)cc1O [Compound 3, (R)-1-(2-((R)-3-((6-(2-Hydroxy-4-(trifluoromethyl)phenyl)-5-methylpyridazin-3-yl)amino)piperidin-1-yl)ethyl)pyrrolidin-3-ol] |
| < 5 nM | O=C(CN1CCC[C@@H](Nc2nnc(-c3ccc(C(F)(F)F)cc3O)c3ccccc23)C1)N1CCC(O)CC1 [Example 33, (R)-2-(3-((4-(2-Hydroxy-4-(trifluoromethyl)phenyl)phthalazin-1-yl)amino)piperidin-1-yl)-1-(4-hydroxypiperidin-1-yl)ethan-1-one] |
| 5 to 50 nM | Cc1cc(N[C@@H]2CCCN(CC(=O)N3CCC(CO)CC3)C2)nnc1-c1ccc(C(F)(F)F)cc1O [Example 58, (R)-2-(3-((6-(2-Hydroxy-4-(trifluoromethyl)phenyl)-5-methylpyridazin-3-yl)amino)piperidin-1-yl)-1-(4-(hydroxymethyl)piperidin-1-yl)ethan-1-one] |
| 5 to 50 nM | Cc1cc(N[C@@H]2CCCN(CC(=O)NC34CC(O)(C3)C4)C2)nnc1-c1ccc(C(F)(F)F)cc1O [Compound 13, (R)-2-(3-((6-(2-Hydroxy-4-(trifluoromethyl)phenyl)-5-methylpyridazin-3-yl)amino)piperidin-1-yl)-N-(3-hydroxybicyclo[1.1.1]pentan-1-yl)acetamide] |
| < 5 nM | Cc1cc(N[C@@H]2CCCN(CCC(=O)N3CCC(O)CC3)C2)nnc1-c1ccc(C(F)(F)F)cc1O [Example 46, 3-[(3R)-3-({6-[2-Hydroxy-4-(trifluoromethyl)phenyl]-5-methylpyridazin-3-yl}amino)piperidin-1-yl]-1-(4-hydroxypiperidin-1-yl) propan-1-one] |

Same assay, conditions: Homo sapiens, U-937, read-out: IL-1β IC50, Table 4; PMA-differentiated U937 cells, 1 μg/mL LPS 3 h, compound 30 min, 10 mM nigericin 1 h

| SMILES | IC50 |
| --- | --- |
| Oc1cc(C(F)(F)F)ccc1-c1nnc(N[C@@H]2CCCN(C3CNC3)C2)c2c1COC2 [Example 99, (R)-2-(4-((1-(Azetidin-3-yl)piperidin-3-yl)amino)-5,7-dihydrofuro[3,4-d]pyridazin-1-yl)-5-(trifluoromethyl)phenol] | < 5 nM |
| Cc1cc(N[C@@H]2CCCN(C3CCN(C(=O)N4CCC(N)CC4)CC3)C2)nnc1-c1ccc(C(F)(F)F)cc1O [Example 87, (R)-(4-Aminopiperidin-1-yl) (3-((6-(2-hydroxy-4-(trifluoromethyl)phenyl)-5-methylpyridazin-3-yl)amino)-[1,4′-bipiperidin]-1′-yl)methanone] | 50 to 500 nM |
| Cc1cc(N[C@@H]2CCCN(CC(=O)N3CCNCC3)C2)nnc1-c1ccc2sccc2c1O [Example 113, (R)-2-(3-((6-(4-hydroxybenzo[b]thiophen-5-yl)-5-methylpyridazin-3-yl)amino)piperidin-1-yl)-1-(piperazin-1-yl)ethan-1-one] | < 5 nM |
| Cc1cc(N[C@@H]2CCCN([C@H]3C[C@H](N)C3)C2)nnc1-c1ccc(C(F)(F)F)cc1O (relative stereo) [Example 90, 2-(6-(((R)-1-((1r*,3R*)-3-Aminocyclobutyl)piperidin-3-yl)amino)-4-methylpyridazin-3-yl)-5-(trifluoromethyl)phenol] | 5 to 50 nM |

The remaining lines, values ahead:

| IC50 | SMILES |
| --- | --- |
| 50 to 500 nM | Cc1cc(N[C@@H]2CCCN(C3CCN(CCN)CC3)C2)nnc1-c1ccc(C(F)(F)F)cc1O [Example 98, (R)-2-(6-((1′-(2-Aminoethyl)-[1,4′-bipiperidin]-3-yl)amino)-4-methylpyridazin-3-yl)-5-(trifluoromethyl)phenol] |
| 5 to 50 nM | Cc1cc(N[C@@H]2CCCN(C(=O)CN)C2)nnc1-c1ccc(C(F)(F)F)cc1O [Example 92, (R)-2-Amino-1-(3-((6-(2-hydroxy-4-(trifluoromethyl)phenyl)-5-methylpyridazin-3-yl)amino)piperidin-1-yl)ethan-1-one] |

Same assay, conditions: read-out: IL-1β IC50; Table 3; PMA-differentiated U937 cells, 1 μg/mL LPS 3 h, compound 30 min, 10 mM nigericin 1 h

| IC50 | SMILES |
| --- | --- |
| 5 to 50 nM | Cc1cc(N[C@@H]2CCCN(C3CCN(C4CCC(O)CC4)CC3)C2)nnc1-c1ccc(C(F)(F)F)cc1O (single isomer, unassigned) [Example 39B] |
